In US7312181B2, “Acylated thiosemicarbazides as herbicides” (Cropsolution, Inc., priority 2005, dated 2007) one finds EC90 data, which are given here for eleven compounds.

This assay has as its system Arabidopsis thaliana. Briefly: Plate-based in vivo herbicidal screen, Arabidopsis thaliana. To be noted: 192 h, seeds in 96-well plate, 27° C., 8 days, continuous fluorescent lighting, scored by visual inspection. The method, then: Plate-based in vivo screens were used to identify compounds with herbicidal activity. Three species of plants were used in screening: Arabidopsis thaliana, Agrostis sp. and Nicotinia tabacum (common tobacco). Test compounds in 1 μL of dimethylsulfoxide (DMSO) were delivered to individual wells of a 96-well microtiter plate. Growth media containing 10-15 seeds per 100 uL were then added. The growth media consisted of Murashige and Skoog Basal salt mixture, and 0.15% low melt agarose, all at a pH 6.2. The seeds remained neutrally buoyant and were easily pipettable at this concentration of low melt agarose. Each plate contained a column of untreated control wells in order to determine the false positive rate. The plates were covered and sealed and incubated at 27° C. for 8 days under continuous fluorescent lighting (155 umol/m^2/s). The plates were scored for herbicidal activity by visual inspection. Observed symptomology included growth inhibition, bleaching, leaf curling, and root growth inhibition. Six commercial herbicide standards were run concurrently with the experimental compounds as internal controls for assay sensitivity and plant response. The standards are described in Table 1 with their biochemical mode of action. The herbicidal activity of compositions in the present invention, presented as EC90 concentrations in the Arabidopsis thaliana screen, is tabulated in Table 2.
As usually defined, the EC90 is the concentration needed for an effect of 90%. As for `O=C(NNC(=S)Nc1ccccc1Cl)c1cccc(NC(=O)c2cccc(Cl)c2)c1` [Compound 2, 1-[3-(3-Chlorobenzamido)-benzoyl]-4-(2-chlorophenyl)-thiosemicarbazide], the EC90 was 100 nM. Turning to `O=C(Nc1cccc(C(=O)NNC(=S)Nc2ccccc2Cl)c1Cl)c1cccc(Cl)c1` [Compound 3, 1-[2-Chloro-3-(3-chloro-benzamido)-benzoyl]-4-(2-chlorophenyl)-thiosemicarbazide], the EC90 came to 3300 nM. As for `Cc1c(NC(=O)c2cccc(Cl)c2)cccc1C(=O)NNC(=S)Nc1ccccc1Cl` [Compound 4, 1-[3-(3-Chlorobenzamido)-2-methylbenzoyl]-4-(2-chloro-phenyl)-thiosemicarbazide], the figure is 300 nM.

As for `O=C(NNC(=S)Nc1ccccc1)c1cccc(NC(=O)c2cccc(Cl)c2)c1` [Compound 6, 1-[3-(3-Chlorobenzamido)-benzoyl]-4-phenyl-thiosemicarbazide], the EC90 stood at 150 nM.

In the case of `O=C(NNC(=S)Nc1ccccc1C(F)(F)F)c1cccc(NC(=O)c2cccc(Cl)c2)c1` [Compound 7, 1-[3-(3-Chlorobenzamido)-benzoyl]-4-(2-trifluoromethylphenyl)-thiosemicarbazide], the concentration for an effect of 90% (EC90) came to 1200 nM.

As for `O=C(NNC(=S)Nc1ccccc1F)c1cccc(NC(=O)c2cccc(Cl)c2)c1` [Compound 9, 1-[3-(3-Chlorobenzamido)-benzoyl]-4-(2-fluorophenyl)-thiosemicarbazide], the EC90 was determined as 50 nM. In the case of `O=C(NNC(=S)Nc1ccccc1Cl)c1ccc(Cl)c(NC(=O)c2cccc(C(F)(F)F)c2)c1` [Compound 11, 4-(2-Chlorophenyl)-1-[4-chloro-3-(3-trifluoromethylbenzamido)-benzoyl]-thiosemicarbazide] it was 3300 nM; in that of `O=C(NNC(=S)Nc1ccccc1Cl)c1cccc(NC(=O)c2cccc(C(F)(F)F)c2)c1` [Compound 12, 4-(2-Chlorophenyl)-1[3-(3-trifluoromethylbenzamido)-benzoyl]-thiosemicarbazide], 300 nM. As to `O=C(Nc1cccc(C(=O)NNC(=S)Nc2ccccc2Cl)c1Cl)c1cccc(C(F)(F)F)c1` [Compound 14, 4-(2-Chlorophenyl)-1-[2-chloro-3-(3-trifluoromethylbenzamido)-benzoyl]-thiosemicarbazide], the EC90 was found to be 300 nM. The compound `O=C(NNC(=S)Nc1ccccc1Cl)c1cccc(NC(=O)c2cc(F)ccc2F)c1` [Compound 22, 4-(2-Chlorophenyl)-1-[3-(2,5-difluorobenzamido)-benzoyl]-thiosemicarbazide] yielded a concentration for an effect of 90% (EC90) of 50 nM.

In turn, `O=C(NNC(=S)Nc1ccccc1Cl)c1cccc(NC(=O)c2cccc(F)c2)c1` [Compound 23, 4-(2-Chlorophenyl)-1-[3-(3-fluorobenzamido)-benzoyl]-thiosemicarbazide] came in with an EC90 of 50 nM.
